# Measurements published in ChEMBL document CHEMBL5113453, “Design, synthesis, and biological evaluation of a new series of pyrazole derivatives: Discovery of potent and selective JNK3 kinase inhibitors” (Bioorg Med Chem, 2022).
# Tests used:
# OVCAR-5 = experiment: Antiproliferative activity against human OVCAR-5 cells measured after 48 hrs by SRB assay; format: functional, cell-based
# TK-10 = experiment: Antiproliferative activity against human TK-10 cells measured after 48 hrs by SRB assay; format: functional, cell-based
# 786-0 = experiment: Antiproliferative activity against human 786-0 cells measured after 48 hrs by SRB assay; format: functional, cell-based
# OVCAR-3 = experiment: Antiproliferative activity against human OVCAR-3 cells measured after 48 hrs by SRB assay; format: functional, cell-based
# SK-MEL-28 = experiment: Antiproliferative activity against human SK-MEL-28 cells measured after 48 hrs by SRB assay; format: functional, cell-based
# UACC-62 = experiment: Antiproliferative activity against human UACC-62 cells measured after 48 hrs by SRB assay; format: functional, cell-based
# NCI/ADR-RES = experiment: Antiproliferative activity against human NCI-ADR-RES cells measured after 48 hrs by SRB assay; format: functional, cell-based
# SNB-75 = experiment: Antiproliferative activity against human SNB-75 cells measured after 48 hrs by SRB assay; format: functional, cell-based
# MDA-MB-435 = experiment: Antiproliferative activity against human MDA-MB-435 cells measured after 48 hrs by SRB assay; format: functional, cell-based
# SR = experiment: Antiproliferative activity against human SR cells measured after 48 hrs by SRB assay; format: functional, cell-based
# MCF7 = experiment: Antiproliferative activity against human MCF7 cells measured after 48 hrs by SRB assay; format: functional, cell-based
# OVCAR-4 = experiment: Antiproliferative activity against human OVCAR-4 cells measured after 48 hrs by SRB assay; format: functional, cell-based
# M14 = experiment: Antiproliferative activity against human M14 cells measured after 48 hrs by SRB assay; format: functional, cell-based
# NCI-H226 = experiment: Antiproliferative activity against human NCI-H226 cells measured after 48 hrs by SRB assay; format: functional, cell-based
# NCI-H460 = experiment: Antiproliferative activity against human NCI-H460 cells measured after 48 hrs by SRB assay; format: functional, cell-based
# HOP-92 = experiment: Antiproliferative activity against human HOP-92 cells measured after 48 hrs by SRB assay; format: functional, cell-based
# DU-145 = experiment: Antiproliferative activity against human DU-145 cells measured after 48 hrs by SRB assay; format: functional, cell-based
# UO-31 = experiment: Antiproliferative activity against human UO-31 cells measured after 48 hrs by SRB assay; format: functional, cell-based
# U-251 = experiment: Antiproliferative activity against human U-251 cells measured after 48 hrs by SRB assay; format: functional, cell-based
# RPMI-8226 = experiment: Antiproliferative activity against human RPMI-8226 cells measured after 48 hrs by SRB assay; format: functional, cell-based
# MDA-MB-231 = experiment: Antiproliferative activity against human MDA-MB-231 cells measured after 48 hrs by SRB assay; format: functional, cell-based
# SF-539 = experiment: Antiproliferative activity against human SF-539 cells measured after 48 hrs by SRB assay; format: functional, cell-based
# A498 = experiment: Antiproliferative activity against human A498 cells measured after 48 hrs by SRB assay; format: functional, cell-based
# WI-38 = experiment: Antiproliferative activity against human WI-38 cells measured by MTT assay; format: functional, cell-based
# [1] = molecular target: Mitogen-activated protein kinase 10 (Homo sapiens, UniProt P53779); experiment: Inhibition of JNK3 (unknown origin)
# HCC 2998 = experiment: Antiproliferative activity against human HCC 2998 cells measured after 48 hrs by SRB assay; format: functional, cell-based
# SNB-19 = experiment: Antiproliferative activity against human SNB-19 cells measured after 48 hrs by SRB assay; format: functional, cell-based
# SF-295 = experiment: Antiproliferative activity against human SF-295 cells measured after 48 hrs by SRB assay; format: functional, cell-based
# COLO 205 = experiment: Antiproliferative activity against human COLO 205 cells measured after 48 hrs by SRB assay; format: functional, cell-based
# SN12C = experiment: Antiproliferative activity against human SN12C cells measured after 48 hrs by SRB assay; format: functional, cell-based
# T47D = experiment: Antiproliferative activity against human T47D cells measured after 48 hrs by SRB assay; format: functional, cell-based
# SK-OV-3 = experiment: Antiproliferative activity against human SK-OV-3 cells measured after 48 hrs by SRB assay; format: functional, cell-based
# SK-MEL-2 = experiment: Antiproliferative activity against human SK-MEL-2 cells measured after 48 hrs by SRB assay; format: functional, cell-based
# CCRF-CEM = experiment: Antiproliferative activity against human CCRF-CEM cells measured after 48 hrs by SRB assay; format: functional, cell-based
# HL-60(TB) = experiment: Antiproliferative activity against human HL-60(TB) cells measured after 48 hrs by SRB assay; format: functional, cell-based
# KM12 = experiment: Antiproliferative activity against human KM12 cells measured after 48 hrs by SRB assay; format: functional, cell-based
# BT-549 = experiment: Antiproliferative activity against human BT-549 cells measured after 48 hrs by SRB assay; format: functional, cell-based
# Malme-3M = experiment: Antiproliferative activity against human Malme-3M cells measured after 48 hrs by SRB assay; format: functional, cell-based
# HT-29 = experiment: Antiproliferative activity against human HT-29 cells measured after 48 hrs by SRB assay; format: functional, cell-based
# Sequence of Mitogen-activated protein kinase 10 (P53779 whole entry): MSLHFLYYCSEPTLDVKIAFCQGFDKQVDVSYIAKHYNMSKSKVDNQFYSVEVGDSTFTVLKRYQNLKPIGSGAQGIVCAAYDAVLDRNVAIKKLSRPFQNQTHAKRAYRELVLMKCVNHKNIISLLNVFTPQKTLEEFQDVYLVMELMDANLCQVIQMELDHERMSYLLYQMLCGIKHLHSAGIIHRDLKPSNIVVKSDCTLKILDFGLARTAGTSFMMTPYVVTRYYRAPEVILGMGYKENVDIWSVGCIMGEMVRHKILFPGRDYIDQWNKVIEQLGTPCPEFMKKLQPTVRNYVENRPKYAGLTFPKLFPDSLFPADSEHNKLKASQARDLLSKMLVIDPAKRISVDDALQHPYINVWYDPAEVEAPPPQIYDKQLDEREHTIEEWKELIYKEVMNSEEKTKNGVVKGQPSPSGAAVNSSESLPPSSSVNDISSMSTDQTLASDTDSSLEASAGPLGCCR
smiles,measurement,setting,value
O=C(Nc1ccc(Cl)c(C(F)(F)F)c1)N1CCN(c2cc(-c3cn(-c4ccccc4)nc3-c3cccc(O)c3)ccn2)CC1,IC50,"OVCAR-5; OVCAR-5, 48 h",4.13 µM
same,TGI,"OVCAR-5; OVCAR-5, time 48 hrs",10.5 µM
same,IC50,"TK-10; TK-10, 48 h",5.92 µM
same,TGI,"TK-10; TK-10, time 48 hrs",> 22 µM
same,IC50,"786-0; 786-0, 48 h",4.02 µM
same,TGI,"786-0; 786-0, time 48 hrs",> 22 µM
same,IC50,"OVCAR-3; OVCAR-3, 48 h",1.76 µM
same,TGI,"OVCAR-3; OVCAR-3, time 48 hrs",11.5 µM
same,IC50,"SK-MEL-28; SK-MEL-28, 48 h",3.41 µM
same,TGI,"SK-MEL-28; SK-MEL-28, time 48 hrs",10.3 µM
same,IC50,"UACC-62; UACC-62, 48 h",2.68 µM
same,TGI,"UACC-62; UACC-62, time 48 hrs",5.77 µM
same,IC50,NCI/ADR-RES; 48 h,2.91 µM
same,TGI,NCI/ADR-RES; time 48 hrs,11.9 µM
same,IC50,"SNB-75; SNB-75, 48 h",0.63 µM
same,TGI,"SNB-75; SNB-75, time 48 hrs",11.1 µM
same,IC50,"MDA-MB-435; MDA-MB-435, 48 h",2.29 µM
same,TGI,"MDA-MB-435; MDA-MB-435, time 48 hrs",6.33 µM
same,IC50,SR; 48 h,3.07 µM
same,TGI,SR; time 48 hrs,> 22 µM
same,IC50,"MCF7; MCF7, 48 h",1.8 µM
same,TGI,"MCF7; MCF7, time 48 hrs",10.1 µM
same,IC50,"OVCAR-4; OVCAR-4, 48 h",2.02 µM
same,TGI,"OVCAR-4; OVCAR-4, time 48 hrs",> 22 µM
same,IC50,"M14; M14, 48 h",3.03 µM
same,TGI,"M14; M14, time 48 hrs",12.5 µM
same,IC50,"NCI-H226; NCI-H226, 48 h",3.22 µM
same,TGI,"NCI-H226; NCI-H226, time 48 hrs",15.8 µM
same,IC50,"NCI-H460; NCI-H460, 48 h",2.47 µM
same,TGI,"NCI-H460; NCI-H460, time 48 hrs",> 22 µM
same,IC50,"HOP-92; HOP-92, 48 h",2.59 µM
same,TGI,"HOP-92; HOP-92, time 48 hrs",15.9 µM
same,IC50,"DU-145; DU-145, 48 h",7.15 µM
same,TGI,"DU-145; DU-145, time 48 hrs",> 22 µM
same,IC50,"UO-31; UO-31, 48 h",3 µM
same,TGI,"UO-31; UO-31, time 48 hrs",> 22 µM
same,IC50,"U-251; U-251, 48 h",4.23 µM
same,TGI,"U-251; U-251, time 48 hrs",> 22 µM
same,IC50,"RPMI-8226; RPMI-8226, 48 h",1.21 µM
same,TGI,"RPMI-8226; RPMI-8226, time 48 hrs",11.8 µM
same,IC50,"MDA-MB-231; MDA-MB-231, 48 h",3.07 µM
same,TGI,"MDA-MB-231; MDA-MB-231, time 48 hrs",7.57 µM
same,IC50,"SF-539; SF-539, 48 h",4.21 µM
same,TGI,"SF-539; SF-539, time 48 hrs",> 22 µM
same,IC50,"A498; A498, 48 h",4.72 µM
same,TGI,"A498; A498, time 48 hrs",21 µM
same,IC50,WI-38,> 20 µM
same,IC50,[1],> 1 µM
same,IC50,"HCC 2998; HCC 2998, 48 h",6.1 µM
same,TGI,"HCC 2998; HCC 2998, time 48 hrs",> 22 µM
same,IC50,"SNB-19; SNB-19, 48 h",4.06 µM
same,TGI,"SNB-19; SNB-19, time 48 hrs",> 22 µM
same,IC50,"SF-295; SF-295, 48 h",1.5 µM
same,TGI,"SF-295; SF-295, time 48 hrs",7.25 µM
same,IC50,"COLO 205; COLO 205, 48 h",3.01 µM
same,TGI,"COLO 205; COLO 205, time 48 hrs",9.39 µM
same,IC50,SN12C; 48 h,3.21 µM
same,TGI,SN12C; time 48 hrs,> 22 µM
same,IC50,T47D; 48 h,1.13 µM
same,TGI,T47D; time 48 hrs,14.8 µM
same,IC50,"SK-OV-3; SK-OV-3, 48 h",6.43 µM
same,TGI,"SK-OV-3; SK-OV-3, time 48 hrs",> 22 µM
same,IC50,"SK-MEL-2; SK-MEL-2, 48 h",3.54 µM
same,TGI,"SK-MEL-2; SK-MEL-2, time 48 hrs",7.57 µM
same,IC50,CCRF-CEM; 48 h,1.59 µM
same,TGI,CCRF-CEM; time 48 hrs,9.71 µM
same,IC50,"HL-60(TB); HL-60, 48 h",2.34 µM
same,TGI,"HL-60(TB); HL-60, time 48 hrs",8.58 µM
same,IC50,"KM12; KM12, 48 h",3.34 µM
same,TGI,"KM12; KM12, time 48 hrs",15.2 µM
same,IC50,"BT-549; BT-549, 48 h",3.33 µM
same,TGI,"BT-549; BT-549, time 48 hrs",7.99 µM
same,IC50,Malme-3M; 48 h,3.3 µM
same,TGI,Malme-3M; time 48 hrs,8.95 µM
same,IC50,"HT-29; HT-29, 48 h",4.1 µM
same,TGI,"HT-29; HT-29, time 48 hrs",> 22 µM
